Reference: article PMC4830886, “Extended evaluation on the ES-D3 cell differentiation assay combined with the BeWo transport model, to predict relative developmental toxicity of triazole compounds” (Archives of Toxicology, 2015)
Marks after values point to notes of the source that are not given here.

Assays:
[1] = in vitro BeWo transport model (placental transfer); conditions: human
Description: (§1) To study placental transfer of test compounds, BeWo transport experiments were performed as described previously (Li et al. [2013]). Briefly, BeWo b30 cells (passages 27–45) were cultured in DMEM (Zwijndrecht, The Netherlands), supplemented with 10 % (v/v) heat-inactivated FCS (HyClone-Perbio, Etten-Leur, The Netherlands), 10,000 U/ml penicillin, 10 mg/ml streptomycin and 2 mM L-glutamine. The cells were seeded at a density of 1 × 10^5 cells/cm^2 on transwell® polycarbonate membranes (12 mm diameter, 0.4 μm pore size) (VWR International BV, Amsterdam, The Netherlands) coated with human placental collagen. The medium (0.5-ml apical compartment, 1.5-ml basolateral compartment) was replaced daily. At day 6 postseeding, the BeWo b30 cell layers were used for transport experiments. The barrier-forming capacity of the BeWo cell layers was evaluated by measuring the transepithelial electrical resistance (TEER) of the cell monolayer using a Millicell ERS-2 Volt-Ohm Meter (Millipore, USA) at day 6 postseeding as described previously (Li et al. [2013]). Only the cell layers showing TEER values between 80 and 100 Ω cm^2 were used for transport experiments.
(§2) Transport experiments were initiated by adding 0.5 ml of transport buffer Hank’s balanced salt solution (HBSS, Invitrogen, Breda, The Netherlands) containing the test compound, being 0594, 0595, 0596, 0599, 0600 and 0618, dissolved in DMSO (final solvent concentration 0.5 % DMSO), at concentration of 50 μM, to the apical compartment and 1.5 ml transport buffer to the basolateral compartment. Subsequently, the plate was incubated in a humidified atmosphere with 5 % CO2 at 37 °C. After 15, 30, 60 and 90 min, a sample of 0.2 ml was taken from the basolateral compartment and replaced by an equal volume of transport buffer. At the end of each experiment, a 0.2-ml sample was also taken from the apical compartment. Subsequently, the filters with the BeWo b30 cell layers were washed three times with PBS, cut out of the insert, dissolved in 0.25 ml 65 % (v/v) methanol and sonificated for 15 min in a Bandelin Sonorex RK100 (Berlin, Germany) in order to determine the amount of compound accumulated in the cells. After each experiment, mass balance calculations were performed. In each transport study, amoxicillin and antipyrine were included as control and reference compounds. Amoxicillin transport was included to assess for monolayer integrity since it is a compound known to be transported only to a limited extent across the placenta, whereas antipyrine was included as a control for optimal transport and a reference compound to enable calculation of relative transport rates (Li et al. [2013]). The transport of the six test compounds, as well as the reference compounds amoxicillin and antipyrine, through the permeable membrane of the transwell filter in the absence of BeWo cells was determined as well. […] For each test compound, three independent experiments were performed, with three technical replicates per experiment.
(§3) Samples were analyzed using high-performance liquid chromatography (HPLC) to quantify the amount of test compound in order to determine the transport rate and to perform mass balance calculations. The HPLC system used consisted of a Waters (Milford, MA) 600 controller and a 600 pump, equipped with a photodiode array detector set to record absorption of wavelengths between 200 and 400 nm. A Waters 717 plus autosampler was used for sample injection. The temperature of the autosampler was kept at 7 °C.
(§4) For analysis of all compounds, 50 μl sample was injected to a C18 5 μm reverse-phase column (150 mm × 4.6 mm I.D.) with a guard column (7.5 mm × 4.6 mm I.D.) (Alltech, Bergen op Zoom, The Netherlands). The mobile phase used for analysis of all the test compounds consisted of (A) 0.1 % trifluoroacetic acid in nanopure water and (B) HPLC-grade acetonitrile. Elution was at a flow rate of 0.8 ml/min, starting at 22 % B with a linear increase to 100 % B in 8 min.

BeWo b30 cell layers = assay: in vitro BeWo transport model (placental transfer); conditions: BeWo cells, 50 μM (25 nmol) apical, at 90 min
Description: as §1, §2, §3, §4

time-mated Wistar rats = assay: in vivo maternal and prenatal developmental toxicity screening study (OECD 414 principles); conditions: rat
Text: The major differences to a full guideline study were the smaller sample size, using 9–10 instead of at least 16 pregnant rats, per test substance.
The animals were paired by the breeder [time-mated Wistar rats, Crl: WI (Han), Charles River Laboratories, Sulzfeld, Germany], between 10 and 12 weeks of age, and supplied on the day of evidence of mating; this day is referred to as gestational day (GD) 0 and following day as GD 1. […] This strain has been extensively used, both in our laboratory and elsewhere, and is sensitive to reproductive toxicants. All rats were housed individually in Makrolon cages with Lignocel PS 14 fibers dust-free bedding and wooden enrichment blocks. The cages were kept in climate-controlled rooms at 20–24 °C with a relative humidity of 30–70 %, an air exchange rate of 15 times per hour and a 12-h light/dark cycle. Diet (Ground Kliba SA, Switzerland) and tap water were provided ad libitum. In-life data (mortality, clinical signs, body weights and food consumption) were recorded throughout the study, but presented only if relevant for the interpretation of prenatal developmental effects.
The test compounds administered by gavage were administrated between 100 and 600 mg/kg bw/day using the vehicle 1 % carboxymethylcellulose in deionized water. The standard dose volume was 10 ml/kg bw.
On GD 20, the surviving dams were anesthetized with isoflurane, killed by decapitation and examined macroscopically. For each dam, the uterus was opened and the number, distribution and classification of implantation sites (live fetus, early and late fetal resorptions, and dead fetus) were determined. The fetuses were removed, sexed and fetal body weight determined. Gross pathological examination of the fetuses, including assessment of abnormalities of the fetal membranes, placentas, amniotic fluid and umbilical cord, was performed. Subsequently, all fetuses were killed by injection of pentobarbital. […] The other half of the fetuses of each dam was fixed in Harrison’s fluid. […] A permanent structural change that is likely to affect adversely the survival or health was assessed as malformation. A change that also occurs in the fetuses of control animals and/or is unlikely to affect adversely the survival or health was assessed as variation. This includes delays in growth or morphogenesis that have otherwise followed a normal pattern of development.
Maternal toxicity was classified as slight if body weight and/or carcass weight reduction is not above 10 %, moderate if body weight and/or carcass weight reduction is between 10 and 20 % and severe if body weight and/or carcass weight reduction is above 20 %. All the in vivo data are expressed as the affected fetuses/litter.

[2] = female, Wistar Crl:WI(Han), in vivo
[3] = gavage GD 6–19, 600 mg/kg, affected fetuses/litter
[4] = gavage GD 6–19, 200 mg/kg, affected fetuses/litter
[5] = 1 = highest potential, 6 = lowest, among the six test compounds
[6] = gavage GD 6–19, 100 mg/kg, affected fetuses/litter

Row | SMILES | Papp at 30 min, 50 μM [1] | Intracellular accumulation (% of added amount) (BeWo b30 cell layers) | Ranking (in vivo prenatal developmental toxicity potency) (time-mated Wistar rats; [2]) | Early resorption (%) (time-mated Wistar rats; gavage GD 6–19, 200 mg/kg) | Fetal weight (%) (time-mated Wistar rats; gavage GD 6–19, 200 mg/kg) | Late resorption (%) (time-mated Wistar rats; gavage GD 6–19, 200 mg/kg) | Maternal toxicity classification (time-mated Wistar rats; gavage GD 6–19, 200 mg/kg) | Maternal toxicity findings (time-mated Wistar rats; gavage GD 6–19, 200 mg/kg) | Placenta weight (%) (time-mated Wistar rats; gavage GD 6–19, 200 mg/kg) | Postimplantation loss (%) (time-mated Wistar rats; gavage GD 6–19, 200 mg/kg) | Total number of fetuses (time-mated Wistar rats; gavage GD 6–19, 200 mg/kg) | Early resorption (%) (time-mated Wistar rats; gavage GD 6–19, 600 mg/kg) | Fetal weight (%) (time-mated Wistar rats; gavage GD 6–19, 600 mg/kg) | Late resorption (%) (time-mated Wistar rats; gavage GD 6–19, 600 mg/kg) | Placenta weight (%) (time-mated Wistar rats; gavage GD 6–19, 600 mg/kg) | Postimplantation loss (%) (time-mated Wistar rats; gavage GD 6–19, 600 mg/kg) | Total number of fetuses (time-mated Wistar rats; gavage GD 6–19, 600 mg/kg) | Malformation, Total (skeletal) (time-mated Wistar rats; [4]) | Malformation, Total (skeletal) (time-mated Wistar rats; [3]) | Ranking (in vivo prenatal developmental toxicity potency) (time-mated Wistar rats; [5]) | further results
1 | OC(c1cccnc1)c1c(-c2ccc(F)cc2F)noc1-c1ccc(Cl)cc1F (stereo not drawn) [compound 0594, [5-(4-Chloro-2-fluoro-phenyl)-3-(2,4-difluoro-phenyl)-isoxazol-4-yl]-pyridin-3-yl-methanol] | 11.5 ± 2.6 ×10⁻⁶ cm/s | 24 % of added amount | 4 | 5.9% | 107% | 1.9% | No | No | 110% | 7.8% | 99 | 14.1% | 101% | 0.8% | 116% | 14.9% | 98 | – | – | – | Bent femur (time-mated Wistar rats; [3]): Bent femur 12.5%
2 | OC(c1cccnc1)c1c(-c2ccc(F)cc2F)csc1-c1ccc(F)cc1F (stereo not drawn) [compound 0595, [2,4-Bis-(2,4-difluoro-phenyl)-thiophen-3-yl]-pyridin-3-yl-methanol] | 3 ± 0.4 ×10⁻⁶ cm/s | 79 % of added amount | 6 | 21.9% | 102% | 2.0% | No | NAD | 117% | 24% | 74 | 100% | – | 0.0% | – | 100.0** % | 0 | Total 0% | – | – | Maternal body weight (BW) (time-mated Wistar rats; gavage GD 6–19, 600 mg/kg): 74%; Maternal carcass weight (CW) (time-mated Wistar rats; gavage GD 6–19, 600 mg/kg): 89%; Maternal mortality (time-mated Wistar rats; gavage GD 6–19, 600 mg/kg): 30%; teratogenic potential (time-mated Wistar rats; overall assessment of the in vivo study): no teratogenic potential
3 | CC(c1nc(-c2ccc(C#N)cc2)cs1)C(O)(Cn1cncn1)c1ccc(F)cc1 (stereo not drawn) [compound 0596, 4-{2-[2-(4-Fluoro-phenyl)-2-hydroxy-1-methyl-3-[1,2,4]triazol-1-yl-propyl]-thiazol-4-yl}-benzonitrile] | 24.4 ± 2.7 ×10⁻⁶ cm/s | 12 % of added amount | – | 2.9% | 108% | 0.0% | No | NAD | 127** % | 2.9% | 109 | 7.7% | 105% | 0.8% | 133% | 8.6% | 102 | – | Total 100 %** | 2 | Misshapen basisphenoid (time-mated Wistar rats; [4]): 30.6%; Misshapen cervical arch (time-mated Wistar rats; [4]): 14.3%; Severely malformed skull bones (time-mated Wistar rats; [4]): 5.3%; Maternal toxicity classification (time-mated Wistar rats; gavage GD 6–19, 600 mg/kg): No; Maternal toxicity findings (time-mated Wistar rats; gavage GD 6–19, 600 mg/kg): NAD; Misshapen basisphenoid (time-mated Wistar rats; [3]): 13%; Misshapen cervical arch (time-mated Wistar rats; [3]): 70.2%; Severely malformed skull bones (time-mated Wistar rats; [3]): 82.8%
4 | CC(c1nc(-c2ccc(C#N)cc2)cs1)C(O)(Cn1ccnc1)c1ccc(F)cc1 (stereo not drawn) [compound 0599, 4-[2-[2-(4-Fluorophenyl)-2-hydroxy-3-imidazol-1-yl-1-methyl-propyl]thiazol-4-yl]benzonitrile] | 18.4 ± 1.1 ×10⁻⁶ cm/s | 22 % of added amount | – | – | – | – | – | – | – | – | – | – | – | – | – | – | – | – | – | 1 | Early resorption (%) (time-mated Wistar rats; gavage GD 6–19, 100 mg/kg): 7.8%; Fetal weight (%) (time-mated Wistar rats; gavage GD 6–19, 100 mg/kg): 102%; Late resorption (%) (time-mated Wistar rats; gavage GD 6–19, 100 mg/kg): 0.8%; Maternal carcass weight (CW) (time-mated Wistar rats; gavage GD 6–19, 100 mg/kg): 91%; Placenta weight (%) (time-mated Wistar rats; gavage GD 6–19, 100 mg/kg): 116%; Postimplantation loss (%) (time-mated Wistar rats; gavage GD 6–19, 100 mg/kg): 8.6%; Total number of fetuses (time-mated Wistar rats; gavage GD 6–19, 100 mg/kg): 99; Maternal body weight change BWC (6–8) (time-mated Wistar rats; gavage GD 6–19, 100 mg/kg, GD 6–8): 66%; Maternal food consumption FC (6–20) (time-mated Wistar rats; gavage GD 6–19, 100 mg/kg, GD 6–20): > 74%; Malformation, CP (cleft palate) (time-mated Wistar rats; [6]): 10%; Malformation, Total (skeletal) (time-mated Wistar rats; [6]): 100%; Misshapen basisphenoid (time-mated Wistar rats; [6]): 74.2%; Misshapen temporal bone (time-mated Wistar rats; [6]): 85.4%; Small tuberositas deltoidea (time-mated Wistar rats; [6]): 66.3%; Maternal mortality (time-mated Wistar rats; gavage GD 6–19, 250 mg/kg): Mortality 100 %**; Total number of fetuses (time-mated Wistar rats; gavage GD 6–19, 250 mg/kg): 0
5 | CC1CC(C)OC(Cn2cncn2)(c2ccc(Oc3ccc(Cl)cc3)cc2Cl)O1 (stereo not drawn) [compound 0600, 1-[[2-[2-Chloro-4-(4-chlorophenoxy)phenyl]-4,6-dimethyl-1,3-dioxan-2-yl]methyl]-1,2,4-triazole] | 7.9 ± 1 ×10⁻⁶ cm/s | 66 % of added amount | 3 | 4.0% | 102% | 0.0% | No | NAD | 105% | 4.0% | 99 | 6.0% | 102% | 1.0% | 130% | 7.0% | 104 | Total 0% | 81% | – | Malformation, CP (cleft palate) (time-mated Wistar rats; [3]): 5%; Misshapen pterygoid bones (time-mated Wistar rats; [3]): 36.3%; Small tuberositas deltoidea (time-mated Wistar rats; [3]): 48.1%
